From ChEMBL document CHEMBL5727865, “4,6-substituted-pyrazolo[1,5-a]pyrazines as Janus kinase inhibitors” (2020)

Legend:
[1] = biological target: Tyrosine-protein kinase JAK2 (Homo sapiens, UniProt O60674); test: (§1) JAK2 Inhibition Assay: Compounds of Formula I were screened for their ability to inhibit JAK2 using the general enzyme inhibition assay method, in which the assay mixture contained 1 mM ATP, 10 μM Omnia Y7 peptide (Catalog # IVGN KNZ3071C, Invitrogen Corporation, Carlsbad, Calif.) and 4 nM JAK2 in a total volume of 25 μL. JAK2 was purchased from Invitrogen Corporation, Carlsbad, Calif. (catalog # IVGN PV4288).
Tyrosine-protein kinase JAK2, sequence (O60674 whole entry): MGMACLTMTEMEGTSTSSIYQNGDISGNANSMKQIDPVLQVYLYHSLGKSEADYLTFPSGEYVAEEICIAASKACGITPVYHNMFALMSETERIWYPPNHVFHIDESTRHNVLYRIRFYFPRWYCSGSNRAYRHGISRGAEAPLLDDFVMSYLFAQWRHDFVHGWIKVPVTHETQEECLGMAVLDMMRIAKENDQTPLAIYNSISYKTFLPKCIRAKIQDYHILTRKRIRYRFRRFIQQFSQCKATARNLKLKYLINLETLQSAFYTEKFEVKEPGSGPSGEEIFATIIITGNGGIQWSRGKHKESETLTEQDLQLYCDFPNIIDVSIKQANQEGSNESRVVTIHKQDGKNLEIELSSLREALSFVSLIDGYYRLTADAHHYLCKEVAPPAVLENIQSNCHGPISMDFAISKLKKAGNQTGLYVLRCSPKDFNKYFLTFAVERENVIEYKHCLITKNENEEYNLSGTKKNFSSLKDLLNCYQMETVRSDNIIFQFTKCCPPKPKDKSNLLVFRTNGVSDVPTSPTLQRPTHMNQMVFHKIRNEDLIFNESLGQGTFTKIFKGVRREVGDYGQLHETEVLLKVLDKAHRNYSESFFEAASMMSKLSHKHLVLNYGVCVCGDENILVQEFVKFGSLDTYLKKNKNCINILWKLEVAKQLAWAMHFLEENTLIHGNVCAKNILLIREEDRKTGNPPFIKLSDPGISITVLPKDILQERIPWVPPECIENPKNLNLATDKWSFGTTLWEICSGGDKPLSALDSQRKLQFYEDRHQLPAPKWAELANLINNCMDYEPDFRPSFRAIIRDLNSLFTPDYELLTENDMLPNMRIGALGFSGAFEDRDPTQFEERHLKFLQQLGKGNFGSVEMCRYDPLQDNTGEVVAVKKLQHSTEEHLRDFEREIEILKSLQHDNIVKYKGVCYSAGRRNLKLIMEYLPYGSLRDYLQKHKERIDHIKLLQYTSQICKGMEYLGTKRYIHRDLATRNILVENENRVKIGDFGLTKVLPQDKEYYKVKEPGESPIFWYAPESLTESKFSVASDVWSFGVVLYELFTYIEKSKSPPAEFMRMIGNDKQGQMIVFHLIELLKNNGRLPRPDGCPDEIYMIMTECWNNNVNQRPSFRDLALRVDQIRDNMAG

[2] = biological target: Tyrosine-protein kinase JAK1 (Homo sapiens, UniProt P23458); test: as §1, with “JAK1” for “JAK2”, “8” for “10”, “Y12” for “Y7”, “KPZ3121C;” for “KNZ3071C,”, “12.5” for “4”, “PV4775).” for “PV4288).”
Tyrosine-protein kinase JAK1, sequence (P23458 whole entry): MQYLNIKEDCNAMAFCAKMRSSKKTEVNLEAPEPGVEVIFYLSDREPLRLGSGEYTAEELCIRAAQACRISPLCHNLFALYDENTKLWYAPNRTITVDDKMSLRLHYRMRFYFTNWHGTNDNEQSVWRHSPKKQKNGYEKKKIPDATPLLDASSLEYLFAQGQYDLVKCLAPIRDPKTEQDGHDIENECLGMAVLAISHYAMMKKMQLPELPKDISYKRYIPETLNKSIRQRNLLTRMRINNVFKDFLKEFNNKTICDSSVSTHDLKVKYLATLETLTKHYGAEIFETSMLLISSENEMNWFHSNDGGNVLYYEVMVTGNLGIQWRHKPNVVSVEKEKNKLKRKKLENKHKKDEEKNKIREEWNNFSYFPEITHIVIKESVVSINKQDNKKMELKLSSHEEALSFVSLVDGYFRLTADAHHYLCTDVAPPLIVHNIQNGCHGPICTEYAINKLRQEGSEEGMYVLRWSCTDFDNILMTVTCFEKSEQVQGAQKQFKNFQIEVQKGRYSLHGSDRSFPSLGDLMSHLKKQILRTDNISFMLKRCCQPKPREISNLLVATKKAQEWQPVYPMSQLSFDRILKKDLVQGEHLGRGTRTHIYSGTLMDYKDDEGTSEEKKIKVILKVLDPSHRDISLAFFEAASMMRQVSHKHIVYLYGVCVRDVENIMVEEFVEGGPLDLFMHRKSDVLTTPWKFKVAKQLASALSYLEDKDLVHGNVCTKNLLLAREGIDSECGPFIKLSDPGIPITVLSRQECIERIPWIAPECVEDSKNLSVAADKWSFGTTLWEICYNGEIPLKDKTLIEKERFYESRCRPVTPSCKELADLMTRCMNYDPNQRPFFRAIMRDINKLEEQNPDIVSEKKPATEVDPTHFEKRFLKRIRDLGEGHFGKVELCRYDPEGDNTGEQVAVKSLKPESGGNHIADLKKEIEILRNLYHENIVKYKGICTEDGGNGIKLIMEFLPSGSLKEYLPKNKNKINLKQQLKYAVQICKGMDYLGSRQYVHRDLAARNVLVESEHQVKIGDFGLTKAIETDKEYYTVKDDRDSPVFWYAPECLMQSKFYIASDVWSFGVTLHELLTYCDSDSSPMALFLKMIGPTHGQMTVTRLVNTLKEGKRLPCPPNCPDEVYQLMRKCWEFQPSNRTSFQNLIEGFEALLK

SMILES | IC50 [1] [nM] | IC50 [2]
CCC(CC)n1cc(-c2nc(-c3cnn([C@H]4C[C@@H](O)[C@@H](O)C4)c3)cn3nccc23)cn1 | < 10 | –
CCC(CC)n1cc(-c2nc(-c3cnn([C@H]4C[C@@](O)(CO)C4)c3)cn3nccc23)cn1 | – | in the range around 5500 nM
